# Test results reported in ChEMBL document CHEMBL1201862, “PubChem BioAssay data set” (2004).
#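 All cell lines were grown in 96-well plates and treated with compound for 48 hours. Abbreviation: GI50, concentration required for 50% inhibition of growth.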 The source made the active and inactive calls. Cut-off read from the data, not from the text of the source: active = GI50 up to about 1.1 µM and inactive = higher.
# Tests used:
# Assay in all cases: DTP human tumour cell line panel, 48 h
# EKVX = tested on: EKVX
# SNB-75 = tested on: SNB-75
# NCI-H522 = tested on: NCI-H522
# PC-3 = tested on: PC-3
# IGROV-1 = tested on: IGROV-1
# M14 = tested on: M14
# MDA-MB-435 = tested on: MDA-MB-435
# CAKI-1 = tested on: CAKI-1
# COLO 205 = tested on: COLO 205
# ACHN = tested on: ACHN
# T47D = tested on: T47D
# UACC-62 = tested on: UACC-62
# MCF7 = tested on: MCF7
# Hs-578T = tested on: Hs-578T
# SK-MEL-5 = tested on: SK-MEL-5
# SNB-19 = tested on: SNB-19
# HL-60 = tested on: HL-60
# SF-295 = tested on: SF-295
# SF-268 = tested on: SF-268
# DU-145 = tested on: DU-145
Structure (SMILES),GI50 (EKVX),GI50 (SNB-75),GI50 (NCI-H522),GI50 (PC-3),GI50 (IGROV-1),GI50 (M14),GI50 (MDA-MB-435),GI50 (CAKI-1),GI50 (COLO 205),GI50 (ACHN),GI50 (T47D),GI50 (UACC-62),GI50 (MCF7),GI50 (Hs-578T),GI50 (SK-MEL-5),GI50 (SNB-19),GI50 (HL-60),GI50 (SF-295),GI50 (SF-268),GI50 (DU-145)
COc1cc(NS(C)(=O)=O)ccc1Nc1c2ccccc2nc2ccccc12 [AMSACRINE],2.08 µM (inactive),0.403 µM (active),0.668 µM (active),0.415 µM (active),2.4 µM (inactive),0.266 µM (active),4.54 µM (inactive),0.0973 µM (active),2.86 µM (inactive),0.0525 µM (active),0.441 µM (active),0.285 µM (active),0.103 µM (active),1.79 µM (inactive),0.319 µM (active),0.296 µM (active),0.0519 µM (active),0.104 µM (active),0.415 µM (active),–
COc1ccc2c(c1)OC1c3ccccc3OCC21 (configuration not stated),63.7 µM (inactive),27.4 µM (inactive),–,> 100 µM (inactive),> 100 µM (inactive),93.5 µM (inactive),30.7 µM (inactive),> 100 µM (inactive),> 100 µM (inactive),> 100 µM (inactive),72.6 µM (inactive),> 100 µM (inactive),88.1 µM (inactive),> 100 µM (inactive),24.7 µM (inactive),93.3 µM (inactive),34.6 µM (inactive),> 100 µM (inactive),32.8 µM (inactive),> 100 µM (inactive)
O=C(O)CCCc1ccc2ccccc2c1,> 100 µM (inactive),–,> 100 µM (inactive),> 100 µM (inactive),> 100 µM (inactive),> 100 µM (inactive),> 100 µM (inactive),> 100 µM (inactive),> 100 µM (inactive),> 100 µM (inactive),> 100 µM (inactive),> 100 µM (inactive),> 100 µM (inactive),> 100 µM (inactive),> 100 µM (inactive),> 100 µM (inactive),> 100 µM (inactive),> 100 µM (inactive),> 100 µM (inactive),> 100 µM (inactive)
Cc1nc2cn3c(c2c(=O)[nH]1)CCCCC3,> 100 µM (inactive),> 100 µM (inactive),–,> 100 µM (inactive),> 100 µM (inactive),> 100 µM (inactive),> 100 µM (inactive),> 100 µM (inactive),> 100 µM (inactive),> 100 µM (inactive),> 100 µM (inactive),> 100 µM (inactive),> 100 µM (inactive),> 100 µM (inactive),> 100 µM (inactive),> 100 µM (inactive),> 100 µM (inactive),> 100 µM (inactive),> 100 µM (inactive),> 100 µM (inactive)
N[C@@H](CCC(=O)NCP(=O)(O)O)C(=O)O,> 100 µM (inactive),–,18.2 µM (inactive),> 100 µM (inactive),> 100 µM (inactive),–,> 100 µM (inactive),–,> 100 µM (inactive),> 100 µM (inactive),> 100 µM (inactive),> 100 µM (inactive),> 100 µM (inactive),> 100 µM (inactive),> 100 µM (inactive),> 100 µM (inactive),> 100 µM (inactive),> 100 µM (inactive),–,–
CC(=O)C(I(OS(=O)(=O)c1ccc(C)cc1)c1ccccc1)=P(c1ccccc1)(c1ccccc1)c1ccccc1,28 µM (inactive),–,11.8 µM (inactive),26.5 µM (inactive),35.6 µM (inactive),22.1 µM (inactive),15.8 µM (inactive),> 100 µM (inactive),17.1 µM (inactive),> 100 µM (inactive),27 µM (inactive),1.06 µM (active),35.8 µM (inactive),23 µM (inactive),22.1 µM (inactive),38.5 µM (inactive),30.3 µM (inactive),99.3 µM (inactive),23.7 µM (inactive),18.8 µM (inactive)
BrCC(Br)(c1ccccc1)c1ccccc1-c1cc(-c2ccccc2)cc(-c2ccccc2)n1 (configuration not stated),3.85 µM (inactive),1.27 µM (inactive),2.33 µM (inactive),2.59 µM (inactive),3.2 µM (inactive),4.38 µM (inactive),1.84 µM (inactive),5.87 µM (inactive),1.43 µM (inactive),7.01 µM (inactive),–,–,1.09 µM (active),4.52 µM (inactive),1.55 µM (inactive),4.86 µM (inactive),1.07 µM (active),2.9 µM (inactive),2.36 µM (inactive),4.12 µM (inactive)
CCOC(=O)c1c(C)nc2c(c1-c1cn(-c3ccccc3)nc1-c1ccccc1)C(=O)c1ccccc1-2,> 100 µM (inactive),> 100 µM (inactive),> 100 µM (inactive),> 100 µM (inactive),> 100 µM (inactive),> 100 µM (inactive),> 100 µM (inactive),> 100 µM (inactive),> 100 µM (inactive),–,> 100 µM (inactive),> 100 µM (inactive),–,> 100 µM (inactive),> 100 µM (inactive),> 100 µM (inactive),–,> 100 µM (inactive),> 100 µM (inactive),> 100 µM (inactive)
Cc1nc2c(=O)n(C)c(=O)n(C)c2o1,> 100 µM (inactive),> 100 µM (inactive),> 100 µM (inactive),> 100 µM (inactive),> 100 µM (inactive),> 100 µM (inactive),> 100 µM (inactive),> 100 µM (inactive),> 100 µM (inactive),> 100 µM (inactive),> 100 µM (inactive),> 100 µM (inactive),> 10 µM (inactive),> 100 µM (inactive),> 100 µM (inactive),> 100 µM (inactive),–,> 100 µM (inactive),> 100 µM (inactive),–
N#CC12C(=O)N=C(N)C1(C#N)C(c1ccco1)NC1=C2CCCC1 (configuration not stated),> 100 µM (inactive),–,> 100 µM (inactive),> 100 µM (inactive),> 100 µM (inactive),> 100 µM (inactive),> 100 µM (inactive),> 100 µM (inactive),> 100 µM (inactive),> 100 µM (inactive),> 100 µM (inactive),> 100 µM (inactive),75 µM (inactive),> 100 µM (inactive),> 100 µM (inactive),> 100 µM (inactive),> 100 µM (inactive),> 100 µM (inactive),> 100 µM (inactive),> 100 µM (inactive)
CC(C)=CCC/C(C)=C/CC/C(C)=C/CSc1ccccc1C(=O)O [SALIRASIB],18.4 µM (inactive),19.1 µM (inactive),–,19.3 µM (inactive),16.5 µM (inactive),20.4 µM (inactive),20 µM (inactive),22.1 µM (inactive),23.6 µM (inactive),37.7 µM (inactive),> 10 µM (inactive),17.7 µM (inactive),24.8 µM (inactive),17.8 µM (inactive),14.8 µM (inactive),21 µM (inactive),29.7 µM (inactive),18.7 µM (inactive),16.6 µM (inactive),18.2 µM (inactive)
CCCCCCCCCC1(N=[N+]=[N-])C(=O)c2ccccc2N(C)C1=O (configuration not stated),–,29.9 µM (inactive),–,19.4 µM (inactive),27.2 µM (inactive),27 µM (inactive),2.58 µM (inactive),34.4 µM (inactive),32 µM (inactive),32.3 µM (inactive),3.4 µM (inactive),17.3 µM (inactive),29.9 µM (inactive),24.3 µM (inactive),13 µM (inactive),54.7 µM (inactive),> 100 µM (inactive),42.2 µM (inactive),40 µM (inactive),28.7 µM (inactive)
O=C(Cn1c2ccc(Br)cc2c2nc3ccccc3nc21)Nc1ccccc1,–,21.3 µM (inactive),21.6 µM (inactive),18 µM (inactive),15.3 µM (inactive),30.1 µM (inactive),51.4 µM (inactive),26.8 µM (inactive),50.6 µM (inactive),50 µM (inactive),20.1 µM (inactive),48.1 µM (inactive),–,26.7 µM (inactive),34.6 µM (inactive),39.7 µM (inactive),–,31.3 µM (inactive),45.2 µM (inactive),59.2 µM (inactive)
N=C(N)SCc1ccc2c(c1)S(=O)(=O)c1ccccc1O2,17 µM (inactive),14.6 µM (inactive),–,17.7 µM (inactive),16.4 µM (inactive),20.5 µM (inactive),15.5 µM (inactive),21.3 µM (inactive),29 µM (inactive),15.8 µM (inactive),22.5 µM (inactive),15.8 µM (inactive),14.5 µM (inactive),22.9 µM (inactive),–,61.1 µM (inactive),14.9 µM (inactive),21.2 µM (inactive),33.7 µM (inactive),32.4 µM (inactive)
CN1CCN(C(=S)N2CCN(C)CC2)CC1,–,–,0.966 µM (active),> 29.8 µM (inactive),> 84.3 µM (inactive),> 48.1 µM (inactive),> 100 µM (inactive),> 100 µM (inactive),1.37 µM (inactive),> 100 µM (inactive),2.11 µM (inactive),4.85 µM (inactive),1.08 µM (active),> 100 µM (inactive),> 26.1 µM (inactive),> 100 µM (inactive),> 100 µM (inactive),> 100 µM (inactive),> 100 µM (inactive),> 100 µM (inactive)
